Experimental data taken from US20260028354A1, “TETRAHYDRONAPHTHALENE DERIVATIVES AS ESTROGEN RECEPTOR DEGRADERS” (REGENT OF THE UNIVERSITY OF MICHIGAN, priority 2022, published 2026).

Experiment: Western blot analysis for "B" compounds
Type: cell-based
Conditions: read-out: Traditional Western Degradation Potency (DC50)
Outline: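 Compound-treated cells lysed in RIPA buffer with protease inhibitors; equal protein (BCA) run on 10% SDS-PAGE, transferred to PVDF and probed with target antibodies. Band intensities quantified by densitometry and normalized to GAPDH.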

For `O=C1CCC(N2C(=O)c3cc4c(cc3C2=O)CN(C2CCN(CC3(F)CN(c5ccc([C@@H]6c7ccc(O)cc7CC[C@@H]6c6ccccc6)cc5)C3)CC2)C4)C(=O)N1` (stereo partly drawn) [Compound B73, 2-(2,6-dioxopiperidin-3-yl)-6-(1-((3-fluoro-1-(4-((1R,2S)-6-hydroxy-2-phenyl-1,2,3,4-tetrahydronaphthalen-1-yl)phenyl)azetidin-3-yl)methyl)piperidin-4-yl)-6,7-dihydropyrrolo[3,4-f]isoindole-1,3(2H,5H)-dione], the DC50 was over 100 nM.
Compound `CN(c1ccc([C@@H]2c3ccc(O)cc3CC[C@@H]2c2ccccc2)cc1)C1CN([C@H]2CC[C@@H](C(=O)N3Cc4cc5c(cc4C3)C(=O)N(C3CCC(=O)NC3=O)C5=O)CC2)C1` (stereo partly drawn) [Compound B131, 2-(2,6-dioxopiperidin-3-yl)-6-((1S,4s)-4-(3-((4-((1R,2S)-6-hydroxy-2-phenyl-1,2,3,4-tetrahydronaphthalen-1-yl)phenyl)(methyl)amino)azetidin-1-yl)cyclohexane-1-carbonyl)-6,7-dihydropyrrolo[3,4-f]isoindole-1,3(2H,5H)-dione] has a DC50 of over 100 nM.
In the case of `O=C1CCC(N2C(=O)c3cc4c(cc3C2=O)CN(CC2CCC(NC3CN(c5ccc([C@@H]6c7ccc(O)cc7CC[C@@H]6c6ccccc6)cc5)C3)CC2)C4)C(=O)N1` (stereo partly drawn) [Compound B99, 2-(2,6-dioxopiperidin-3-yl)-6-((4-((1-(4-((1R,2S)-6-hydroxy-2-phenyl-1,2,3,4-tetrahydronaphthalen-1-yl)phenyl)azetidin-3-yl)amino)cyclohexyl)methyl)-6,7-dihydropyrrolo[3,4-f]isoindole-1,3(2H,5H)-dione], the DC50 is reported as over 100 nM.
Work on `O=C1CCC(N2C(=O)c3cc4c(cc3C2=O)CN(CC(=O)N2CCC3(CC2)CCN(c2ccc([C@@H]5c6ccc(O)cc6CC[C@@H]5c5ccccc5)cc2)CC3)CC4)C(=O)N1` (stereo partly drawn) [Compound B194, 2-(2,6-dioxopiperidin-3-yl)-6-(2-(9-(4-((1R,2S)-6-hydroxy-2-phenyl-1,2,3,4-tetrahydronaphthalen-1-yl)phenyl)-3,9-diazaspiro[5.5]undecan-3-yl)-2-oxoethyl)-5,6,7,8-tetrahydro-1H-pyrrolo[3,4-g]isoquinoline-1,3(2H)-dione] yielded a DC50 of 10 to 100 nM.
`O=C1CCC(N2C(=O)c3cc4c(cc3C2=O)CN(C(=O)CN2CCC[C@H](Oc3ccc([C@@H]5c6ccc(O)cc6CC[C@@H]5c5ccc(F)cc5)cc3)C2)C4)C(=O)N1` (stereo partly drawn) [Compound B38, 2-(2,6-dioxopiperidin-3-yl)-6-(2-((S)-3-(4-((1R,2S)-2-(4-fluorophenyl)-6-hydroxy-1,2,3,4-tetrahydronaphthalen-1-yl)phenoxy)piperidin-1-yl)acetyl)-6,7-dihydropyrrolo[3,4-f]isoindole-1,3(2H,5H)-dione] gave a DC50 of over 100 nM.
Work on `O=C1CCC(N2C(=O)c3cc4c(cc3C2=O)CN(C(=O)[C@H]2CC[C@@H](N3CC(Nc5ccc([C@@H]6c7ccc(O)cc7CC[C@@H]6c6ccccc6)cc5)C3)CC2)C4)C(=O)N1` (stereo partly drawn) [Compound B129, 2-(2,6-dioxopiperidin-3-yl)-6-((1R,4s)-4-(3-((4-((1R,2S)-6-hydroxy-2-phenyl-1,2,3,4-tetrahydronaphthalen-1-yl)phenyl)amino)azetidin-1-yl)cyclohexane-1-carbonyl)-6,7-dihydropyrrolo[3,4-f]isoindole-1,3(2H,5H)-dione] yielded a DC50 of over 100 nM.
In the case of `O=C1CCC(N2C(=O)c3cc4c(cc3C2=O)CN(C(=O)C2CCN(CC3CN(c5ccc([C@@H]6c7ccc(O)cc7CC[C@@H]6c6ccccc6)cc5)C3)CC2)C4)C(=O)N1` (stereo partly drawn) [Compound B79, 2-(2,6-dioxopiperidin-3-yl)-6-(1-((1-(4-((1R,2S)-6-hydroxy-2-phenyl-1,2,3,4-tetrahydronaphthalen-1-yl)phenyl)azetidin-3-yl)methyl)piperidine-4-carbonyl)-6,7-dihydropyrrolo[3,4-f]isoindole-1,3(2H,5H)-dione], the DC50 is reported as over 100 nM.
For `O=C1CCC(N2C(=O)c3cc4c(cc3C2=O)CN(C(=O)CN2CCC3(CC2)CCN(c2ccc([C@@H]5c6ccc(O)cc6CC[C@@H]5c5ccccc5)cc2F)C3)C4)C(=O)N1` (mixture of isomers) [Compound B33, 2-(2,6-dioxopiperidin-3-yl)-6-(2-(2-(2-fluoro-4-((1R,2S)-6-hydroxy-2-phenyl-1,2,3,4-tetrahydronaphthalen-1-yl)phenyl)-2,8-diazaspiro[4.5]decan-8-yl)acetyl)-6,7-dihydropyrrolo[3,4-f]isoindole-1,3(2H,5H)-dione], the DC50 was over 100 nM.
Compound `CN(c1ccc([C@@H]2c3ccc(O)cc3CC[C@@H]2c2ccccc2)cc1)C1CN(C[C@H]2CC[C@H](C(=O)N3Cc4cc5c(cc4C3)C(=O)N(C3CCC(=O)NC3=O)C5=O)CC2)C1` (stereo partly drawn) [Compound B132, 2-(2,6-dioxopiperidin-3-yl)-6-((1R,4r)-4-((3-((4-((1R,2S)-6-hydroxy-2-phenyl-1,2,3,4-tetrahydronaphthalen-1-yl)phcnyl)(mcthyl)amino)azctidin-1-yl)mcthyl)cyclohexanc-1-carbonyl)-6,7-dihydropyrrolo[3,4-f]isoindole-1,3(2H,5H)-dione] has a DC50 of over 100 nM.
`C[C@@H]1CC2(CCN(c3ccc([C@@H]4c5ccc(O)cc5CC[C@@H]4c4ccc(F)cc4)cc3)CC2)CN1C(=O)CN1Cc2cc3c(cc2C1)C(=O)N(C1CCC(=O)NC1=O)C3=O` (mixture of isomers) [Compound B26, 2-(2,6-dioxopiperidin-3-yl)-6-(2-((R)-8-(4-((1R,2S)-2-(4-fluorophenyl)-6-hydroxy-1,2,3,4-tetrahydronaphthalen-1-yl)phenyl)-3-methyl-2,8-diazaspiro[4.5]decan-2-yl)-2-oxoethyl)-6,7-dihydropyrrolo[3,4-f]isoindole-1,3(2H,5H)-dione] showed a DC50 of 10 to 100 nM.
For `O=C1CCC(N2Cc3cc4c(cc3C2=O)CN(C(=O)C2CCC(N3CC(Oc5ccc([C@@H]6c7ccc(O)cc7CC[C@@H]6c6ccccc6)cc5)C3)CC2)C4)C(=O)N1` (stereo partly drawn) [Compound B106, 3-(6-((1R,4r)-4-(3-(4-((1R,2S)-6-hydroxy-2-phenyl-1,2,3,4-tetrahydronaphthalen-1-yl)phenoxy)azetidin-1-yl)cyclohexane-1-carbonyl)-1-oxo-3,5,6,7-tetrahydropyrrolo[3,4-f]isoindol-2(1H)-yl)piperidine-2,6-dione], the DC50 was under 10 nM.
With `O=C1CCC(N2C(=O)c3cc4c(cc3C2=O)CN(CC2CCC3(CC2)CCN(C(=O)c2ccc([C@@H]5c6ccc(O)cc6CC[C@@H]5c5ccccc5)cc2)CC3)C4)C(=O)N1` (stereo partly drawn) [Compound B287, 2-(2,6-dioxopiperidin-3-yl)-6-((3-(4-((1R,2S)-6-hydroxy-2-phenyl-1,2,3,4-tetrahydronaphthalen-1-yl)benzoyl)-3-azaspiro[5.5]undecan-9-yl)methyl)-6,7-dihydropyrrolo[3,4-f]isoindole-1,3(2H,5H)-dione] the DC50 was over 100 nM.
With `O=C1CCC(N2C(=O)c3cc4c(cc3C2=O)CN(C[C@H]2CC[C@H](C(=O)N3CC(Oc5ccc([C@@H]6c7ccc(O)cc7CC[C@@H]6c6ccccc6)cc5)C3)CC2)C4)C(=O)N1` (stereo partly drawn) [Compound B293, 2-(2,6-dioxopiperidin-3-yl)-6-(((1R,4r)-4-(3-(4-((1R,2S)-6-hydroxy-2-phenyl-1,2,3,4-tetrahydronaphthalen-1-yl)phenoxy)azetidine-1-carbonyl)cyclohexyl)methyl)-6,7-dihydropyrrolo[3,4-f]isoindole-1,3(2H,5H)-dione] the DC50 was 10 to 100 nM.
In the case of `O=C1CCC(N2Cc3cc4c(cc3C2=O)CN(C[C@H]2CC[C@H](C(=O)N3CC(Oc5ccc([C@@H]6c7ccc(O)cc7CC[C@@H]6c6ccccc6)cc5)C3)CC2)C4)C(=O)N1` (stereo partly drawn) [Compound B294, 3-(6-(((1R,4r)-4-(3-(4-((1R,2S)-6-hydroxy-2-phenyl-1,2,3,4-tetrahydronaphthalen-1-yl)phenoxy)azetidine-1-carbonyl)cyclohexyl)methyl)-1-oxo-3,5,6,7-tetrahydropyrrolo[3,4-f]isoindol-2(1H)-yl)piperidine-2,6-dione], the DC50 is reported as under 10 nM.
Work on `CN(C1CCN(c2ccc([C@@H]3c4ccc(O)cc4CC[C@@H]3c3ccccc3)cc2)CC1)C1CC(C(=O)N2Cc3cc4c(cc3C2)C(=O)N(C2CCC(=O)NC2=O)C4=O)C1` (stereo partly drawn) [Compound B111, 2-(2,6-dioxopiperidin-3-yl)-6-(3-((1-(4-((1R,2S)-6-hydroxy-2-phenyl-1,2,3,4-tetrahydronaphthalen-1-yl)phenyl)piperidin-4-yl)(methyl)amino)cyclobutane-1-carbonyl)-6,7-dihydropyrrolo[3,4-f]isoindole-1,3(2H,5H)-dione] yielded a DC50 of over 100 nM.
With `O=C1CCC(N2Cc3cc4c(cc3C2=O)CN(C(=O)C2CCC(N3CC(Oc5ccc([C@@H]6c7ccc(O)cc7CC[C@@H]6c6ccccc6)cc5)C3)CC2)C4)C(=O)N1` (stereo partly drawn) [Compound B107, 3-(6-((1S,4s)-4-(3-(4-((1R,2S)-6-hydroxy-2-phenyl-1,2,3,4-tetrahydronaphthalen-1-yl)phenoxy)azetidin-1-yl)cyclohexane-1-carbonyl)-1-oxo-3,5,6,7-tetrahydropyrrolo[3,4-f]isoindol-2(1H)-yl)piperidine-2,6-dione] the DC50 was over 100 nM.
Compound `O=C1CCC(N2C(=O)c3cc4c(cc3C2=O)CN([C@H]2CC[C@H](C(=O)N3CC(Nc5ccc([C@@H]6c7ccc(O)cc7CC[C@@H]6c6ccccc6)cc5)C3)CC2)C4)C(=O)N1` (stereo partly drawn) [Compound B124, 2-(2,6-dioxopiperidin-3-yl)-6-((1S,4r)-4-(3-((4-((1R,2S)-6-hydroxy-2-phenyl-1,2,3,4-tetrahydronaphthalen-1-yl)phenyl)amino)azetidine-1-carbonyl)cyclohexyl)-6,7-dihydropyrrolo[3,4-f]isoindole-1,3(2H,5H)-dione] has a DC50 of over 100 nM.
`O=C1CCC(N2C(=O)c3cc4c(cc3C2=O)CN(CC2CCC(N3CCN(c5ccc([C@@H]6c7ccc(O)cc7CC[C@@H]6c6ccccc6)cc5)CC3)CC2)C4)C(=O)N1` (stereo partly drawn) [Compound B83, 2-(2,6-dioxopiperidin-3-yl)-6-((4-(4-(4-((1R,2S)-6-hydroxy-2-phenyl-1,2,3,4-tetrahydronaphthalen-1-yl)phenyl)piperazin-1-yl)cyclohcxyl)mcthyl)-6,7-dihydropyrrolo[3,4-f]isoindolc-1,3(2H,5H)-dione] showed a DC50 of 10 to 100 nM.
